Results reported in patent publication US12495798B2, “Nicotinamide compound and herbicidal composition comprising compound” (KOREA RESEARCH INSTITUTE OF CHEMICAL TECHNOLOGY, priority 2019, dated 2025).

Experiments:
Type in all cases: in vivo
black nightshade [1] = experiment: Herbicidal activity test against upland field weeds (foliar treatment test); conditions: Solanum nigrum, 50 g ai/ha, scale 0-100
Method in brief: (§1)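 Visual 0–100 control ratings relative to untreated plants, taken 14 (or 21) days after spraying foliage at 50 or 75 g a.i./ha. Spray solution: 50% acetone with 0.1% Tween-20; plants kept in greenhouse at 30±5 °C, 14 h light/10 h dark.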

black nightshade [2] = experiment: Herbicidal activity test against upland field weeds (soil treatment test); parameters: key to Soil treatment herbicidal activity, black nightshade: 0 (no control); 100 (complete control); conditions: 50 g ai/ha, scale 0 (no control) to 100 (complete control); for pest or weed control at 50 g/ha: Solanum nigrum
Experimental: (§2) Experimental Example 2: Herbicidal Activity Test Against Upland Field Weeds (Soil Treatment Test) Soil treatment was performed as follows: After filling a square plastic pot having a surface area of 350 cm^2 with sandy loam mixed with 1 g per pot (350 cm^2) of horticultural mixed fertilizer (N:P:K=11:10:11), seeds (10˜15 grains) or rootstocks (2 pieces) of 5 kinds of grassy weeds of sorghum, barnyard grass, quack grass, crabgrass, fall panicum, and 5 kinds of broadleaf weeds of black nightshade, indian jointvetch, velvetleaf, cocklebur, bindweed, which had been stored in a low temperature (6° C.), were sown. The day after sowing, test compound solutions were made by diluting with a preparation solution (including 50% acetone, 0.1% Tween-20) so that the final treatment amount of the test compounds was 50 or 75 g a.i./ha. The prepared test compound solution was used for treating soil surface by hand-spraying 14 mL per pot in a fume hood. After the treatment, it was managed under the same greenhouse conditions (average temperature 30±5° C., light/dark=14/10 hours), and after 14 days (after 21 days if necessary), the external symptoms and efficacy were investigated according to the scale of 0 (no control) to 100 (complete control). The results of Table 8 were obtained by evaluating weed control value to the untreated control by conducting visual assessment.

bindweed [3] = experiment: Herbicidal activity test against upland field weeds (foliar treatment test); conditions: 50 g ai/ha, scale 0-100
Method in brief: as §1

indian jointvetch [4] = experiment: Herbicidal activity test against upland field weeds (soil treatment test); parameters: key to Soil treatment herbicidal activity, Indian jointvetch: 0 (no control); 100 (complete control); conditions: 50 g ai/ha, scale 0 (no control) to 100 (complete control)
Experimental: as §2

crabgrass [5] = experiment: Herbicidal activity test against upland field weeds (foliar treatment test); conditions: Digitaria sanguinalis, 50 g ai/ha, scale 0-100
Method in brief: as §1

quack grass [6] = experiment: as above; parameters: key to Foliar treatment herbicidal activity, quack grass: 0 (no control); 100 (complete control); conditions: 50 g ai/ha, scale 0-100
Method in brief: as §1

cocklebur [7] = experiment: as above; parameters: key to Foliar treatment herbicidal activity, Cocklebur: 0 (no control); 100 (complete control); conditions: 50 g ai/ha, scale 0-100; for pest or weed control at 50 g/ha: Xanthium strumarium
Method in brief: as §1

indian jointvetch [8] = experiment: as above; conditions: 50 g ai/ha, scale 0-100
Method in brief: as §1

cocklebur [9] = experiment: Herbicidal activity test against upland field weeds (soil treatment test); parameters: key to Soil treatment herbicidal activity, Cocklebur: 0 (no control); 100 (complete control); conditions: 50 g ai/ha, scale 0 (no control) to 100 (complete control)
Experimental: as §2

fall panicum [10] = experiment: as above; parameters: key to Soil treatment herbicidal activity, Fall panicum: 0 (no control); 100 (complete control); conditions: 50 g ai/ha, scale 0 (no control) to 100 (complete control); for pest or weed control at 50 g/ha: Panicum dichotomiflorum
Experimental: as §2

fall panicum [11] = experiment: Herbicidal activity test against upland field weeds (foliar treatment test); conditions: Panicum dichotomiflorum, 50 g ai/ha, scale 0-100
Method in brief: as §1

barnyard grass [12] = experiment: Herbicidal activity test against upland field weeds (soil treatment test); parameters: key to Soil treatment herbicidal activity, barnyard grass: 0 (no control); 100 (complete control); conditions: 50 g ai/ha, scale 0 (no control) to 100 (complete control)
Experimental: as §2

barnyard grass [13] = experiment: Herbicidal activity test against upland field weeds (foliar treatment test); conditions: Echinochloa crus-galli, 50 g ai/ha, scale 0-100
Method in brief: as §1

sorghum [14] = experiment: as above; conditions: Sorghum, 50 g ai/ha, scale 0-100
Method in brief: as §1

sorghum [15] = experiment: Herbicidal activity test against upland field weeds (soil treatment test); parameters: key to Soil treatment herbicidal activity, Sorghum: 0 (no control); 100 (complete control); conditions: 50 g ai/ha, scale 0 (no control) to 100 (complete control); for plant injury at 50 g/ha: Sorghum
Experimental: as §2

velvetleaf [16] = experiment: as above; parameters: key to Soil treatment herbicidal activity, velvet leaf: 0 (no control); 100 (complete control); conditions: 50 g ai/ha, scale 0 (no control) to 100 (complete control)
Experimental: as §2

crabgrass [17] = experiment: as above; parameters: key to Soil treatment herbicidal activity, Crabgrass: 0 (no control); 100 (complete control); conditions: 50 g ai/ha, scale 0 (no control) to 100 (complete control)
Experimental: as §2

velvetleaf [18] = experiment: Herbicidal activity test against upland field weeds (foliar treatment test); parameters: key to Foliar treatment herbicidal activity, velvet leaf: 0 (no control); 100 (complete control); conditions: 50 g ai/ha; for pest or weed control at 50 g/ha: Abutilon theophrasti, scale 0-100, read-out: Foliar treatment herbicidal activity, velvet leaf
Method in brief: as §1

quack grass [19] = experiment: Herbicidal activity test against upland field weeds (soil treatment test); parameters: key to Soil treatment herbicidal activity, quack grass: 0 (no control); 100 (complete control); conditions: 50 g ai/ha, scale 0 (no control) to 100 (complete control)
Experimental: as §2

bindweed [20] = experiment: as above; conditions: 50 g ai/ha, scale 0 (no control) to 100 (complete control)
Experimental: as §2

SMILES | pest or weed control at 50 g/ha (black nightshade [1]) [%] | pest or weed control at 50 g/ha (black nightshade [2]) [%] | pest or weed control at 50 g/ha (bindweed [3]) [%] | pest or weed control at 50 g/ha (indian jointvetch [4]) [%] | pest or weed control at 50 g/ha (crabgrass [5]) [%] | Foliar treatment herbicidal activity, quack grass (quack grass [6]) | pest or weed control at 50 g/ha (indian jointvetch [8]) [%] | Soil treatment herbicidal activity, Cocklebur (cocklebur [9]) | pest or weed control at 50 g/ha (fall panicum [11]) [%] | Soil treatment herbicidal activity, barnyard grass (barnyard grass [12]) | pest or weed control at 50 g/ha (barnyard grass [13]) [%] | plant injury at 50 g/ha (sorghum [14]) [%] | Soil treatment herbicidal activity, Sorghum (sorghum [15]) | Soil treatment herbicidal activity, velvet leaf (velvetleaf [16]) | Soil treatment herbicidal activity, Crabgrass (crabgrass [17]) | Soil treatment herbicidal activity, quack grass (quack grass [19]) | Soil treatment herbicidal activity, Indian jointvetch (indian jointvetch [4]) | pest or weed control at 50 g/ha (cocklebur [7]) [%] | pest or weed control at 50 g/ha (fall panicum [10]) [%] | pest or weed control at 50 g/ha (velvetleaf [18]) [%] | further results
CON(Cc1nc(C(F)(F)F)ccc1C(=O)Nc1nnnn1C)Cc1ncnn1C [Compound No. 1-91, 2-((methoxy((1-methyl-1H-1,2,4-triazol-5-yl)methyl)amino)methyl)-N-(1-methyl-1H-tetrazol-5-yl)-6-(trifluoromethyl)nicotinamide] | 98 | 98 | 80 | 98 | 98 | 0 | 90 | 0 | 90 | 0 | 98 | 50 | 0 | 100 | 0 | 0 |  |  |  |  | Foliar treatment herbicidal activity, Cocklebur (cocklebur [7]): 100; Soil treatment herbicidal activity, Fall panicum (fall panicum [10]): 0; Foliar treatment herbicidal activity, velvet leaf (velvetleaf [18]; scale 0-100): 100
CC(=O)N(C(=O)c1ccc(C(F)(F)F)nc1COCc1nnn(C)n1)c1nnnn1C [Compound No. 2-67, N-acetyl-N-(1-methyl-1H-tetrazol-5-yl)-2-(((2-methyl-2H-tetrazol-5-yl)methoxy)methyl)-6-(trifluoromethyl)nicotinamide] | 95 |  | 40 |  | 70 | 0 | 80 | 100 | 60 | 100 | 70 | 40 |  | 100 | 100 | 0 | 100 | 95 | 90 | 80 | plant injury at 50 g/ha (sorghum [15]): 50%; pest or weed control at 50 g/ha (bindweed [20]): 70%
CON(Cc1nnn(C)n1)Cc1nc(C(F)(F)Cl)ccc1C(=O)Nc1nnnn1C [Compound No. 2-79, 6-(chlorodifluoromethyl)-2-((methoxy((2-methyl-2H-tetrazol-5-yl)methyl)amino)methyl)-N-(1-methyl-1H-tetrazol-5-yl)nicotinamide] | 98 |  | 40 |  | 70 | 0 | 70 | 0 | 50 | 100 | 80 | 20 |  | 100 |  | 0 | 100 | 60 | 98 | 80 | Soil treatment herbicidal activity, black nightshade (black nightshade [2]): 100; plant injury at 50 g/ha (sorghum [15]): 30%; pest or weed control at 50 g/ha (crabgrass [17]; Digitaria sanguinalis): 95%
Cn1cnc(COCc2nc(C(F)(F)Cl)ccc2C(=O)Nc2nnnn2C)n1 [Compound No. 2-80, 6-(chlorodifluoromethyl)-2-(((1-methyl-1H-1,2,4-triazol-3-yl)methoxy)methyl)-N-(1-methyl-1H-tetrazol-5-yl)nicotinamide] | 98 | 98 | 40 | 40 | 40 | 0 | 70 | 0 | 60 | 0 | 80 | 20 | 0 |  | 0 | 0 |  | 40 |  | 98 | Soil treatment herbicidal activity, Fall panicum (fall panicum [10]): 0; pest or weed control at 50 g/ha (velvetleaf [16]; Abutilon theophrasti, read-out: Soil treatment herbicidal activity, velvet leaf): 98%
CON(Cc1nnn(C)n1)Cc1nc(C(F)F)ccc1C(=O)Nc1nnnn1C [Compound No. 2-86, 6-(difluoromethyl)-2-((methoxy((2-methyl-2H-tetrazol-5-yl)methyl)amino)methyl)-N-(1-methyl-1H-tetrazol-5-yl)nicotinamide] | 95 |  | 40 |  | 70 | 0 | 80 | 0 | 50 |  | 95 | 30 | 0 | 100 | 0 | 0 | 100 | 80 | 20 | 98 | Soil treatment herbicidal activity, black nightshade (black nightshade [2]): 100; pest or weed control at 50 g/ha (barnyard grass [12]; Echinochloa crus-galli): 98%
